# Source: patent US6011000A, “Compositions for the treatment of blood disorders” (priority 1995, dated 2000)
# Experiments:
# fetal globin = settings: pharmacological doses, phenylhydrazine-anemic chickens; cited from earlier work
# [1] = test system: human fetal (γ) globin gene; settings: cited from earlier work
# Friend leukemia cells = settings: cited from earlier work
# [2] = test system: fetal globin expression in K562 human erythroleukemia cells; settings: cited from earlier work
# histone acetylation = settings: cited from earlier work
# [3] = test system: fetal globin synthesis in erythroid progenitors; settings: cited from earlier work
# [4] = test system: gamma globin (erythroblasts of sickle cell anemia patients); experiment: Induction of fetal globin in erythroblasts by steel factor; assay type: cell-based, human; settings: 100 ng/ml
# Experimental: Peripheral blood was obtained from patients with sickle cell anemia. Mononuclear cells were isolated on Ficoll-Hypaque gradients. One culture was treated with 100 ng/ml steel factor for 13 days and compared with an untreated control. […] A second culture was incubated overnight with an identical dose of steel factor plus ^3 H-leucine. Amounts of labeled globin proteins synthesized in untreated (FIG. 5A) and steel factor treated (FIG. 5B) cells were determined by autoradiography and quantitated (scanned) by laser densitometry.
# anemic baboon = experiment: In vivo reticulocyte proliferation, globin expression and blood counts in anemic (phlebotomized) baboons; settings: for Fetal reticulocytes: baseline 4%
# Experimental: Experiments were performed to determine if administration of the chemical compositions could induce fetal globin gene expression in an in vivo model similar to humans (S. P. Perrine et al., Brit. J. Haematol. 88:555-61, 1994). Briefly, chemicals were prepared as sterile pharmaceutical solutions in pH adjusted sterile water. A variety of chemical compositions were administered sequentially to some baboons. After administration of one compound, a wash-out period with no compound administration was maintained until reticulocytes returned to base line prior to administration of the next compound. This was done, at least partly, to compare the magnitude of response which occurred within the same individual animal to different compounds.
# Briefly, juvenile female baboons (2 years old) were catheterized with arterial and venous catheters and phlebotomized gradually every day to maintain a moderate anemia of 7.0 to 7.5 grams hemoglobin/dl. Fetal reticulocytes, the newly produced red blood cells containing fetal globin, were assayed using a monoclonal antibody against fetal globin (HbF) as described by G. Dover et al. (Blood 67:735-38, 1986). Briefly, blood was stained with two antibodies, one specific for reticulocytes and another against fetal globin protein. The amount of antibody bound cells was determined by FACS analysis. Globin chain synthesis was assayed as described by J. B. Clegg et al. (J. Mol. Biol. 19:91-108, 1966). Briefly, reticulocytes were radio-labeled with ^3 H-leucine which was incorporated in equal proportions into actively synthesized globin chains. After incubation in leucine-free media, cells were washed, and globin proteins were separated and purified by column chromatography. Radioactivity incorporated into each peak is compared and the ratios of gamma to gamma plus beta globin calculated. Each animal served as its own control with baseline monitoring assays performed for 4-6 weeks before any drug was administered. Phlebotomy was continued daily, so that peripheral HbF levels in the animals were not considered to be accurate over the short treatment time-frames and were not monitored. Safety monitoring was performed by frequent physical examinations, quantitation of food eaten, activity and frequent chemistry and hematology monitoring. Complete blood counts were assayed before, during and after treatment. Results presented were not adjusted to account for the daily phlebotomy.
# [5] = 25 and 100 μg/kg s.c., undetectable before treatment
Molecule,expression of fetal globin (fetal globin),transcription of the human fetal (γ) globin gene [1],hemoglobin synthesis (Friend leukemia cells),increase of fetal globin expression [2],level of histone acetylation (histone acetylation),fetal globin synthesis [3],"mean increase in gamma globin expression ([4]; 13 days, vs untreated control) [%]","gamma globin expression in BFU-e cells ([4]; 13 days, from 14%) [%]",globin proteins included in the increase ([4]; overnight),"Gamma globin expression ([4]; overnight + 3H-leucine, untreated 17.6%) [%]","Fetal reticulocytes (anemic baboon; 25 μg/kg s.c. daily, 4 days (FIG. 10)) [%]","Fetal reticulocytes (anemic baboon; 100 μg/kg s.c., four days, after wash-out) [%]",rise in numbers of newly-formed blood cells producing fetal globin (anemic baboon; 25 and 100 μg/kg s.c.),total increase of gamma globin expression in the bone marrow (anemic baboon; 25 and 100 μg/kg s.c.) [fold],fetal globin chain protein (anemic baboon; [5]),rise in fetal globin chain protein (anemic baboon; [5]) [fold]
CCCC(=O)O [butyric acid],greatly increased expression of fetal globin,accurately and specifically stimulated transcription of the human fetal (γ) globin gene,induced hemoglobin synthesis,much less of an effect,may act by increasing the level of histone acetylation,–,–,–,–,–,–,–,–,–,–,–
"steel factor: hematopoietic factor, steel factor, also referred to as kit ligand, mast cell growth factor and stem cell factor",–,–,–,–,–,capable of influencing fetal globin synthesis in erythroid progenitors,16.1,23.3,included both G-γ and A-γ globin proteins,43.3,15,12,300-500%,9,about 3 % of total non-alpha globin,3
